According to patent US4708961A, “Acylindole derivatives and their use in pharmaceutical compositions” (priority 1983, dated 1987):

Columns and labels:
[1] = test system: collagen induced platelet-aggregation (Platelet Rich Plasma); test: Inhibition of platelet-aggregation (collagen induced, aggregometer, rat PRP); assay type: cell-based, Wistar-strain male rats; conditions: for Platelet Aggregation (%): control 58 ± 1; for IC50: same manner (collagen), male rats weighing 500-700 g
Description: (2) Inhibition of platelet-aggregation
Groups of 5 Wistar-strain male rats (weighing 250-300 g) were used for collection of blood from abdominal aorta in the presence of sodium citric acid under anesthesia with ether. The obtained material was centrifuged at 200×g for 8 minutes to give Platelet Rich Plasma (PRP) from the supernatant. Further centrifugation was carried out at 1500×g for 15 minutes to obtain Platelet Poor Plasma (PPP) from the supernatant.
Platelet-aggregation was measured by aggregometer. 5 μl of the solution of the examined compound was added to 450 μl of the above-mentioned PRP and incubated for 1 minute at 37° C., after that a coagulant was added thereto. Collagen was used as the coagulant (final concentration was 4 μg/ml). Test compound was dissolved in DMSO (dimethylsulfoxide).
In the same manner as indicated above using Wister strain male rats weighing 500-700 g, example of the results is shown in Table 2.

ddy-strain male mice = test: Acute toxicity test; assay type: in vivo; conditions: 4000 mg/kg, orally administered, groups of 5 ddy-strain male mice fasted for 18 hours
Description: 4000 mg/kg of the compound of the invention were orally administered to groups of 5 ddy-strain male mice which were fasted for 18 hours.

[2] = 300 μM, collagen 4 μg/ml, PRP of Wistar-strain male rats 250-300 g, 1 minute at 37° C.
[3] = Rattus norvegicus, Platelet, 1 min, 300 μM, collagen 4 μg/ml, PRP of Wistar-strain male rats 250-300 g, 1 minute at 37° C., read-out: Inhibition rate (%)

| Structure (SMILES) | Platelet Aggregation (%) [1, 2] [%] | inhibition at 300 µM [1, 3] [%] | IC50 ([1]; Rattus norvegicus, Platelet) [µM] | mortality (none of the mice were died) (ddy-strain male mice) | Platelet Aggregation (%) ([1]; 200 μM, collagen 4 μg/ml, PRP of Wistar-strain male rats 250-300 g, 1 minute at 37° C.) | inhibition at 200 µM ([1]; Rattus norvegicus, Platelet, 1 min, 200 μM, collagen 4 μg/ml, PRP of Wistar-strain male rats 250-300 g, 1 minute at 37° C., read-out: Inhibition rate (%)) [%] |
| --- | --- | --- | --- | --- | --- | --- |
| CC(=O)Oc1ccccc1C(=O)O [Aspirin, reference compound] | 23 ± 4 | 60 |  |  |  |  |
| COc1ccc2c(c1)c(CC(=O)O)c(C)n2C(=O)c1ccc(Cl)cc1 [Indomethacin, reference compound] |  |  | 27 |  |  |  |
| COc1ccc(C(=O)c2c[nH]c3ccccc23)cc1 [compound 1, 3-(p-methoxybenzoyl)indole] | 22 ± 5 | 62 | 30 | none of the mice were died |  |  |
| COc1ccccc1C(=O)c1c[nH]c2ccccc12 [compound 2, 3-(o-methoxybenzoyl)indole] | 7 ± 4 |  | 29 | none of the mice were died |  |  |
| O=C(c1ccc(O)cc1)c1c[nH]c2ccccc12 [compound 3, 3-(p-hydroxybenzoyl)indole] | 7 ± 3 |  | 27 | none of the mice were died |  |  |
| O=C(c1ccccc1O)c1c[nH]c2ccccc12 [compound 4, 3-(o-hydroxybenzoyl)indole] | 8 ± 5 |  | 23 | none of the mice were died |  |  |
| COc1ccc(C(=O)c2cn(C(C)=O)c3ccccc23)cc1 [compound 5, 3-(p-methoxybenzoyl)-N-acetylindole] |  |  | 29 | none of the mice were died | 33 ± 1 | 43 |
| COc1ccccc1C(=O)c1cn(C(C)=O)c2ccccc12 [compound 6, 3-(o-methoxybenzoyl)-N-acetylindole] | 9 ± 3 | 84 | 18 | none of the mice were died |  |  |
| CC(=O)Oc1ccc(C(=O)c2cn(C(C)=O)c3ccccc23)cc1 [compound 7, 3-(p-acetoxybenzoyl)-N-acetylindole] | 7 ± 1 | 88 | 21 | none of the mice were died |  |  |
| COc1ccc(C(=O)c2cn(C)c3ccccc23)cc1 [compound 8, 3-(p-methoxybenzoyl)-N-methylindole] |  |  | 23 | none of the mice were died |  |  |
| CC(C)Oc1ccc(C(=O)c2c[nH]c3ccccc23)cc1 [compound 9, 3-(p-isopropoxybenzoyl)indole] | 8 ± 3 |  |  | none of the mice were died |  |  |
| O=C(c1ccc(OCC(O)CO)cc1)c1c[nH]c2ccccc12 (stereo not drawn) [compound 16, 3-[p-(2,3-dihydroxypropoxy)benzoyl]indole] |  |  | 61 |  |  |  |
| O=C(c1ccc(O)cc1)c1cn(CC(O)CO)c2ccccc12 (stereo not drawn) [compound 17, 3-(p-hydroxybenzoyl)-N-(2,3-dihydroxypropyl)indole] |  |  | 85 |  |  |  |
| O=C(c1ccc(OCC(O)CO)cc1)c1cn(CC(O)CO)c2ccccc12 (stereo not drawn) [compound 18, 3-[p-(2,3-dihydroxypropoxy)benzoyl]-N-(2,3-dihydroxypropyl)indole] |  |  | 94 |  |  |  |
| O=C(c1ccccc1O)c1cn(CC(O)CO)c2ccccc12 (stereo not drawn) [compound 19, 3-(o-hydroxybenzoyl)-N-(2,3-dihydroxypropyl)indole] |  |  | 81 |  |  |  |
| O=C(c1ccccc1OCC(O)CO)c1cn(CC(O)CO)c2ccccc12 (stereo not drawn) [compound 20] |  |  | 108 |  |  |  |
| O=C(c1ccc(OCCCO)cc1)c1c[nH]c2ccccc12 [compound 23, 3-[p-(3-hydroxypropoxy)benzoyl]indole] |  |  | 52 |  |  |  |
| O=C(c1ccc(OCCCO)cc1)c1cn(CCCO)c2ccccc12 [compound 24, 3-[p-(3-hydroxypropoxy)benzoyl]-N-(3-hydroxypropyl)indole] |  |  | 77 |  |  |  |
